Results: the NIST ThermoML archive (doi:10.1016/j.jct.2012.03.014)

Assay: cn = amount concentration of the nth substance listed, in mol/dm3
Details: 298.15 K, 101 kPa, Liquid, Taylor dispersion method

CC(=O)Nc1ccc(O)cc1 [N-acetyl-p-aminophenol] + O
Details | binary diffusion coefficient [m2/s]
c1 = 0.001 | 6.63e-10
c1 = 0.003 | 6.59e-10
c1 = 0.005 | 6.54e-10
c1 = 0.01 | 6.5e-10
c1 = 0.03 | 6.29e-10
c1 = 0.05 | 6.21e-10
